Assay results taken from US20200237864A1, “METHODS AND COMPOSITIONS FOR TREATING FIBROTIC INTERSTITIAL LUNG DISEASE” (INSERM (INSTITUT NATIONAL DE LA SANTÉ ET DE LA RECHERCHE …, priority 2017, published 2020).

Assays:
ACTA2 = assay: Spontaneous and TGFB1-induced ACTA2 expression in lung fibroblasts (RTPCR, cell-based ELISA); design: species or system human
Description: (§1) Primary human normal lung fibroblasts (CCD-16Lu cells, American Type Culture Collection, Manassas, Va., USA) were grown in DMEM-Glutamax medium supplemented with 10% fetal bovine serum and penicillin/streptomycin (Thermofisher, Villebon-sur-Yvette, France), at 37° C. with 5% CO2. Experiments were performed between passages 7 and 12, when cells reached 70% confluency. Fibroblasts were treated either with 100 μM CK666 (Tocris, Lille, France) or 1/1000 dimethylsulfoxide (DMSO, Sigma,St Quentin Fallavier, France) as a control. In a second set of experiments, fibroblasts were transfected with 4 nM of either short interfering RNAs targeting ARPC2 (siARPC2, Silencer Select, Thermofisher) or control RNAs (siControl), using the Lipofectamine RNAimax reagent (Thermofisher). For cell growth assays, 50 000 cells/well were plated in 12-well plates, grown for 4 days, detached with 5% trypsin and counted using Kova Glasstic counting slides (Thermofisher). For differentiation assays, cells were plated in 12-well plates, grown to 70% confluency, treated for 24 h with siControl or siARPC2 when appropriate, starved of serum for 24 h, and treated with either CK666 or DMSO 30 minutes before treatment with either 5 ng/ml recombinant human TGFB1 (R&D Systems, Lille, France) of control solvent for 48h. Cell proteins were recovered in 100 μl lysis buffer (50 mM Tris HCl pH7.4, 150 mM NaCl, 0.1% SDS, 0.5% sodium deoxycholate, 1% Triton X-100) with 1% protease inhibitor (P8340, Sigma) and quantitated by the BiCinchoninic acid Assay (Pierce, Thermofisher); mRNA was extracted using the GeneJET RNA Purification Kit (Thermofisher).
For cell-based ELISA, cells were grown in 12-well plates, fixed with 4% paraformaldehyde for 15 min, permeabilized with 0.5% Triton X-100 in PBS, blocked with 1% bovine albumin, incubated overnight at 4° C. with an ACTA2 primary antibody (A2547, dilution 1/1000, Sigma), and sequentially incubated with an anti-mouse biotinylated antibody (Vector, dilution 1/400), streptavidin-horseradish peroxidase (R&D Systems), and Tetramethylbenzidine substrate (Sigma). The reaction was stopped with […] and absorbance readings were taken at 450 nm with 570 nm as a reference wavelength. […]
(§2) RNAs were reverse-transcribed using the First Strand cDNA Synthesis Kit (Thermofisher). Transcripts were quantified by RTPCR (Sybr select Master Mix, Thermofisher) and expressed relative to UBC (human samples) or Gapdh (mouse samples) as an endogenous control using the 2^−ΔCt method.

[1] = tested on: Primary human normal lung fibroblasts (CCD-16Lu cells); assay: Lung fibroblast cell growth assay; format: cell-based; details: CK666 100 μM vs DMSO, Day 4
Description: as §1, with “For differentiation assays, cells were plated in 12-well plates, grown to 70% confluency, treated for 24 h with siControl or siARPC2 when appropriate, starved of serum for 24 h, and treated with either CK666 or DMSO 30 minutes before treatment with either 5 ng/ml recombinant human TGFB1 (R&D Systems, Lille, France) of control solvent for 48h.” left out

[2] = tested on: bleomycin-induced lung fibrosis; format: in vivo, C57BL6-J mice
Description: Male, 8-week old C57BL6-J mice (Janvier, Le Genest-St-Ile, France) were treated with an orotracheal instillation of either 120 μg bleomycin (Laboratoires Bellon, France) or saline, under isoflurane anesthesia. In a first set of experiments, mice were treated from the 7th to the 14th day following instillation with daily subcutaneous injections of either 5 mg/kg of the Arp2/3 inhibitor CK666 (Tocris Biochemicals, Bristol, UK) in 100 μl of 40% Dimethylsulfoxide in saline (vehicle) (M. Park et al. 2013), or vehicle alone. Mice were monitored and weighted daily and their diet was supplemented with gel-based food (Dietgel Recovery gels, ClearH2O, Westbrook, Me., USA). On the 14th day following bleomycin, mice were anesthetized with 300 mg/kg Ketamine and 30 mg/kg xylazine, and euthanized by exsanguination. Bronchoalveolar lavage was performed with 2×1 ml saline. Lung were either snap-frozen in liquid nitrogen or inflation-fixed in 4% formaldehyde. Inhibition of the Arp2/3 complex in vivo. The study protocol was approved by the regional ethics board (APAFIS#5669-20 16061413402331).
Total insoluble collagen was quantified in left lung homogenates (Sircol Insoluble collagen Assay, Biocolor, Carrickfergus, UK). Soluble procollagen-1 was quantified in homogenates of the right upper lung lobe by ELISA (DY6220, R&D Systems). RNAs were extracted from the right middle lung lobe (Allprep, Qiagen) and reverse-transcribed (First Strand cDNA Synthesis Kit, Thermofisher). Transcripts associated with fibrogenesis were quantified by RTPCR (Sybr select Master Mix, Thermofisher) and expressed relative to Gapdh as an endogenous control. The activity of enzymes key to collagen polymerization and degradation was measured in lysates of right lower lobe using fluorimetric assays specific for lysil oxidase (Amplite™ Fluorimetric Lysyl Oxidase Assay, AAT Bioquest, Sunnyvale, Calif., USA) and collagenase (fluorimetric DQ collagen type 1, Sigma Aldrich, St Quentin-Fallavier, France). Clostridium histolyticum collagenase (Sigma-Aldrich) was used as a positive control for collagenase assays. Total BALF proteins were measured with the BCA protein assay (Thermofisher). BALF cells were counted using a hemocytometer. For histological analysis, 5-μm sections of paraffin-embedded lung were stained with Masson's trichrome stain.

COL1 = assay: Spontaneous and TGFB1-induced COL1 expression in lung fibroblasts (RTPCR, ELISA); format: cell-based, human; details: CK666 100 μM
Description: as §1
Procollagen-1 (COL1) and Glyćeraldéhyde-3-phosphate déshydrogenase (GAPDH) were quantified by ELISA (DY6220 and DYC5718, R&D Systems). COL1 was expressed relative to GAPDH as an endogenous control.
as §2

[3] = tested on: G/F actin ratio in lung fibroblasts (CCD-16Lu cells); assay: Determination of G- and F-actin levels in lung fibroblasts; format: cell-based, human
Description: Primary human normal lung fibroblasts (CCD-16Lu cells, American Type Culture Collection, Manassas, Va., USA) were grown in DMEM-Glutamax medium supplemented with 10% fetal bovine serum and penicillin/streptomycin (Thermofisher, Villebon-sur-Yvette, France), at 37° C. with 5% CO2. Experiments were performed between passages 7 and 12, when cells reached 70% confluency. Fibroblasts were treated either with 100 μM CK666 (Tocris, Lille, France) or 1/1000 dimethylsulfoxide (DMSO, Sigma,St Quentin Fallavier, France) as a control. […] For cell growth assays, 50 000 cells/well were plated in 12-well plates, grown for 4 days, detached with 5% trypsin and counted using Kova Glasstic counting slides (Thermofisher). […] Cell proteins were recovered in 100 μl lysis buffer (50 mM Tris HCl pH7.4, 150 mM NaCl, 0.1% SDS, 0.5% sodium deoxycholate, 1% Triton X-100) with 1% protease inhibitor (P8340, Sigma) and quantitated by the BiCinchoninic acid Assay (Pierce, Thermofisher); mRNA was extracted using the GeneJET RNA Purification Kit (Thermofisher).
500 000 cells were seeded in 75 cm2 flasks and treated with either CK666 or DMSO for 24 h. […] Supernatant (G-actin) and pellet (F-actin) samples were analyzed by immunoblotting on polyvinylidene fluoride membranes using a beta-actin primary antibody (Sigma).

[4] = bleomycin-instilled mice, CK666 vs vehicle
[5] = lung lysates, bleomycin-instilled mice, CK666 vs vehicle
[6] = mouse lungs, CK666 5 mg/kg daily day 7-14, RTPCR

Cc1[nH]c2ccccc2c1CCNC(=O)c1ccccc1F [CK666]
TGFB1-driven increase in ACTA2 mRNA (ACTA2; TGFB1 5 ng/ml 48 h, RTPCR): partially | TGFB1-driven increase in ACTA2 protein (ACTA2; TGFB1 5 ng/ml 48 h, cell-based ELISA): totally | expression of ACTA2 mRNA (ACTA2; unstimulated lung fibroblasts, CK666 100 μM, RTPCR): did not modulate | expression of ACTA2 protein (ACTA2; unstimulated lung fibroblasts, CK666 100 μM, cell-based ELISA): did not modulate | reduction of cell growth (fold-increase in cell number relative to seeding) [1]: 36% | reduction of lung content in procollagen-1 ([2]; bleomycin-instilled mice, CK666 5 mg/kg daily day 7-14 vs vehicle, ELISA): 55% | bleomycin-induced increase in BALF total protein [2, 4]: reduced neither | bleomycin-induced weight loss [2, 4]: reduced neither | lung levels of LOX mRNA [2, 4]: did not reduced | lung levels of LOXL2 mRNA [2, 4]: did not reduced | lung levels of TG2 mRNA [2, 4]: did not reduced | bleomycin-induced increase in lung Collal mRNA ([2]; bleomycin-instilled mice, CK666 vs vehicle, RTPCR relative to Gapdh): did not reduce | reduction of lung insoluble collagen ([2]; bleomycin-instilled mice, left lung, CK666 5 mg/kg daily day 7-14 vs vehicle, Sircol assay): 20% | bleomycin-induced increase in lung lysyl oxidase activity [2, 5]: not modified | lung collagenase activity [2, 5]: no effect | lung expression of Arp2 mRNA [2, 6]: increased expression | lung expression of ArpCla mRNA [2, 6]: increased expression | lung expression of Arpc3 mRNA [2, 6]: increased expression | lung histology ([2]; mouse, in vivo): did not result in modifications of lung histology | reduction of the TGFB1-driven increase in COL1 protein (COL1; TGFB1 5 ng/ml, ELISA, trend, p=0.13): 30% | TGFB1-driven increase in COL1A1 mRNA (COL1; TGFB1 5 ng/ml, RTPCR): did not modulate | TGFB1-driven increase in COL1A2 mRNA (COL1; TGFB1 5 ng/ml, RTPCR): did not modulate | reduction of COL1/GAPDH protein ratio (COL1; unstimulated cells, ELISA): 54% | expression of COL1A1 mRNA (COL1; unstimulated cells, RTPCR): did not modulate | expression of COL1A2 mRNA (COL1; unstimulated cells, RTPCR): did not modulate | TGFB1-induced increase in the G/F actin ratio ([3]; TGFB1 5 ng/ml, CK666 100 μM or 4 nM siARPC2): inhibited | G/F actin ratio ([3]; unstimulated lung fibroblasts, CK666 100 μM vs DMSO or 4 nM siARPC2 vs siControl): increased
